The values below come from publication PMC7238042, “π-π-Stacked Poly(ε-caprolactone)-b-poly(ethylene glycol) Micelles Loaded with a Photosensitizer for Photodynamic Therapy” (Pharmaceutics, 2020).

On the set-up of data set [1]: method as in PMID 25388924. To be noted: cited from earlier work.
Data set [2] can be described thus: Biodistribution in A431 tumor-bearing mice (Cy7 fluorescence and mTHPC HPLC). To be noted: 4 h.
Experimental: (§1) Mice were inoculated with 1 × 10^6 A431 cells suspended in 100 μL PBS subcutaneously into the right flank. […] Tumors were measured using a digital caliper. The tumor volume V (in mm^3) was calculated using the equation V = (π/6)LS^2, in which L is the largest and S is the smallest superficial diameter [30].
(§2) Tumors and a panel of organs (spleen, liver, lung, heart, kidney, skin, femur, and brain) were excised and imaged ex vivo by 2D fluorescence reflectance imaging (FRI) using a Pearl Trilogy imager from LI-COR and then stored at −80 °C until further processing for quantification. Organs and tumors from three untreated animals were used as controls.
(§3) To quantify the content of mTHPC and micelles in the tumors and the different organs, the excised tissue samples were treated as follows. First, 100 μL of RIPA lysis buffer was added to 100 mg of sliced tissues or organs. The mixture was homogenized by a tissue grinder (Percellys 24) at a speed of 6000/s for 60 s (for femur samples, 6000/s for 180 s) and the homogenate was subsequently aliquoted. To determine the mTHPC concentration in the samples, 1 volume of an aliquot of the homogenate (30 μL) was mixed with 120 μL of acetonitrile/DMSO (4:1 v/v) and vortexed for 1 min. The mixture was then centrifuged at 15,000× g for 10 min. Next, 50 μL of the obtained supernatant was injected into the HPLC system consisting of a Waters X Select Charged Surface Hybrid (CSH) C18 3.5 μm 4.6 × 150 mm column coupled with a fluorescence detector set at λex 420 nm and λem 650 nm to analyze mTHPC concentration [38]. The mobile phase was 0.1 % trifluoroacetic acid in acetonitrile/water (60:40, v/v) at a flow rate of 1 mL/min. The measuring range was from 0.005 to 4 μg/mL and the detection limit was 5 ng/mL. Calibration curves were obtained from a series of standard solutions of mTHPC in DMSO, to which 45 μL of the corresponding homogenized tissue samples obtained from control mice (i.e., not treated with any formulations) was added, followed by mTHPC extraction using acetonitrile/DMSO (4:1, v/v) and HPLC analysis.
(§4) To determine the concentration of Cy7-labeled micelles in the tissue homogenates, 1 volume of another aliquot of the homogenate (30 μL) was vortex-mixed with 2 volumes of RIPA lysis buffer (60 μL) for 1 min. The fluorescence of Cy7 in the mixture (20 μL) was detected at the 800 nm channel (i.e., λex 785 nm and λem 820 nm), using a LI-COR Odyssey scanner imaging system, and a calibration curve was obtained using samples with different concentrations of Cy7-labeled copolymer in a mixture of RIPA buffer (1 volume) and the corresponding homogenized tumor or organ samples (2 volumes) obtained from non-treated mice.
Data set [3] in a line: Circulation kinetics in A431 tumor-bearing mice (plasma Cy7 and mTHPC). To be noted: mTHPC detection, i.v. 300 µg mTHPC/kg.
Experimental: as §1
(§5) For the latter, mice were killed through cervical dislocation while under deep isoflurane anesthesia. […] The plasma supernatant was collected, extracted using acetonitrile/DMSO (4:1, v/v), and analyzed by high-performance liquid chromatography (HPLC) and a LI-COR Odyssey imaging system to quantify the amount of mTHPC and Cy7-labeled micelles, respectively, as previously described [38]. Plasma concentration curves were analyzed by non-compartmental analysis with the PKSolver add-in for Microsoft Excel [40].
For another data set, the system named is HeLa cells. Details: method as in PMID 32142290. To be noted: cited from earlier work.
The nature of data set [4]: in vivo. To be noted: female, Balb/c nude, mouse, intravenous, 0.3 mg/kg.
Experimental: as §1, §2, §3, §4
The subject of a further data set is cells. Also on record: method as in PMID 32142290. To be noted: cited from earlier work.
Data set [5] in a line: in vivo. To be noted: female, Balb/c nude, mouse, plasma, iv, 300 ug/kg.
Experimental: as §1, §5
Data set [6] can be described thus: Side effects after i.v. administration in mice. Type of data set: in vivo, Balb/c nude mice.
The subject of the next data set is A431 cells. Details: method as in PMID 32142290. To be noted: same conditions, cited from earlier work.

Read-outs that look alike come from different tables or passages of the source.

For “axially solketal-substituted silicon phthalocyanine [Si(sol)2Pc]”, the quenching concentration is listed as 16 µg/mL in data set [1] (in aromatic-substituted thermosensitive micelles, 0.45 mg/mL polymer) and ~ 0.05 µg/mL in data set [1] (in corresponding non-aromatic micelles).
Turning to `Oc1cccc(-c2c3nc(c(-c4cccc(O)c4)c4ccc([nH]4)c(-c4cccc(O)c4)c4nc(c(-c5cccc(O)c5)c5ccc2[nH]5)CC4)C=C3)c1` [Free mTHPC, meta-tetra(hydroxyphenyl)chlorin], the “total mTHPC accumulation in liver” value in data set [2] is ~ 15 % ID per liver. Further, the “total mTHPC accumulation in spleen or lung” value in [2] is listed as ~ 1 % ID per spleen or lung. The AUC in data set [3] is 442 h*%. In addition, in data set [3] (estimated from first hour), the “Half-life Phase α” value is reported as not above 0.5 h. Further, in data set [3] (non-compartmental analysis), the “Half-life Phase β” value worked out at 2.1 h. The EC50 with HeLa cells is 1.2 [38] µg/mL; in the data set on HeLa cells (listed as free mTHPC) it was ~ 1.5 µg/mL; in the data set with A431 cells (listed as free mTHPC), ~ 1.5 µg/mL; with A431 cells, 1.6 ± 0.1 [38] µg/mL. Moreover, in “in vivo [4]” (liver), the tissue uptake (as a rule, the percentage of the injected dose found per gram of tissue) at 4 h is approximately 15 %ID/g. For the same compound, the tissue uptake at 24 h in “in vivo [4]” (liver) is approximately 5 %ID/g; in “in vivo [4]” (tumor, kidney, heart, femur), 2 to 3 %ID/g. Besides, the “mTHPC concentration toxic to cells without illumination” value in the data set on cells (after 7 h) was “higher than 50 µg/mL”; with cells (after 24 h) it was more than 20 µg/mL. In addition, the Vd (usually the apparent volume that relates the amount in the body to the concentration in plasma or blood) in “in vivo [5]” was found to be 0.12 L/kg. In addition, in “in vivo [5]”, the clearance (commonly a measure of how efficiently the substance is removed, as volume per time) is 0.22 mL/min/kg. Moreover, the “side effects after i.v. administration” value in data set [6] (300 µg mTHPC/kg, free mTHPC in ethanol/propylene glycol/PBS 20:30:50, micelles ~1 mg polymer, also reported in ref 38) was “tachypnea, passiveness immediately post-injection”. In addition, in data set [6] (on average, within 24 h after i.v. injection), the “loss of body weight” value is recorded as ~ 1 g.
